# pKi: −log10 of the molar value.
# Key:
# [1] = test system: rats given chronic intrajugular rotenone; conditions: chronic intrajugular rotenone in rats; cited from earlier work
# mouse model of RP = conditions: compared with NAC; cited from earlier work
# [2] = test system: rats with unilateral 6-OHDA-induced nigral lesion; conditions: cited from earlier work
# tyrosinase = tyrosinase (Homo sapiens, UniProt P14679); conditions: cited from earlier work
# [3] = test system: human retinal pigment epithelial cells; conditions: cited from earlier work
# RBCs = conditions: compared with NAC; cited from earlier work
# isolated rat lens = test: Inhibition of oxidation of isolated rat lenses (H2O2 cataract model); format: cell-based, Wistar rat; conditions: 10 mM, 24 hour incubation, then 0.5 mM H2O2 24 hours; compared to control (FIG. 1)
# Experimental: Protocol for inhibition of oxidation of isolated rat lenses. Three-week old Wistar rat eyes were enucleated and lenses micro-dissected in Dulbecco's modified eagle's medium (low glucose) (DMEM-F12). Lenses were handled using only custom-made glass loops to avoid changes in transparency and placed in 1 mL DMEM with 1% penicillin/streptomycin/neomycin. Lenses were placed in a culture incubator set at 37° C./5% CO2 for one hour. Then lenses were imaged under darkfield and brightfield (grid) to ensure they are still transparent before adding vehicle (H20), 10 mM NACA (solution), or 10 mM diNACA (suspension). Lenses were then imaged at a 6-hour time period to ensure transparency was maintained, then incubated for another 18 hours, then imaged again (total 24 hour incubation). Media was collected and fresh media was added to the wells. 0.5 mM H2O2 (warmed at 37 deg C) was added and left for a further 24-hour incubation. Lenses were imaged, media collected, lenses weighed and flash frozen in tared vials and submitted for further analysis
# [4] = test system: olfactory bulbectomized rats; conditions: cited from earlier work
# human melanocytes = conditions: cited from earlier work
# [5] = test system: mice treated with 1-methyl-4-phenyl-1,2,3,6,-tetrahydropyridine; conditions: MPTP-treated mice; cited from earlier work
# β-thalassemic mice = conditions: intra-peritoneal injection, 150 mg/kg; cited from earlier work
# CD-1 mice = conditions: gp120+Tat+METH; cited from earlier work
# [6] = test system: blood cells from β-thalassemic patients; conditions: cited from earlier work
# isolated porcine lenses = test: Inhibition of oxidation of isolated porcine lenses (H2O2-induced cataract); format: cell-based, pigs; conditions: for inhibition of H2O2-induced cataract: 24 hours pre-incubation, then 600 μM H2O2 with glucose oxidase 6 hours (FIG. 2); for efficacy against H2O2-induced cataract relative to NAC: FIG. 2
# Experimental: Protocol for inhibition of oxidation of isolated porcine lenses. Fresh eyes from pigs were obtained from Sierra For Medical Science. Lenses were first incubated in medium 199 (Sigma-Aldrich, St. Louis, Mo., USA) and 1% pig serum in a 12-well plate for two hours. At the end of the incubation, lenses were imaged under darkfield microscopy and only clear, transparent lenses were used for further experimentation. Lenses were then pre-incubated with NAC, NACA or diNACA for 24 hours. After pretreatment, lenses were transferred to media containing 600 μM H2O2 which was supplemented with glucose oxidase (GO) for maintaining a constant H2O2 level during further incubation for 6 hours [Wang G M, Raghavachari N, Lou M F. Relationship of protein-glutathione mixed disulfide and thioltransferase in H2O2-induced cataract in cultured pig lens. Exp Eye Res. 1997 May; 64(5):693-700. doi: 10.1006/exer.1996.0251. PMID: 9245898.]. At the end of the 6-hour incubation, lenses were imaged under darkfield microscopy
# [7] = test system: J-buthionine-(S,R)-induced cataracts; conditions: in vivo; cited from earlier work
# [8] = test system: sodium selenite-induced cataracts; conditions: in vivo; cited from earlier work
# [9] = test system: healthy human skin explants; conditions: healthy human skin explants exposed to UV-radiation; cited from earlier work
# [10] = biological target: glutamate cysteine ligase (GCL, EC 6.3.2.2); conditions: read-out: Ki, nonallosteric competitive inhibition of GCL; cited from earlier work
# rabbit eyes = conditions: in vivo; cited from earlier work
# human cadaver lenses = conditions: in vitro; cited from earlier work
# patients with presbyopia = conditions: first-in-human trial in presbyopes; cited from earlier work
# [11] = humans, oral dose of 600 mg; cited from earlier work
# RP patients = conditions: oral high dose NAC, cited from earlier work
# mouse model = conditions: cited from earlier work
# [12] = test system: corneal endothelial cells; conditions: cell culture; cited from earlier work
# alcohol-preferring rats = conditions: alcohol re-access after deprivation, 60 minutes; untreated 95 to 100 mg/dL; cited from earlier work
# [13] = Topical ocular study in rabbit (NACA in aqueous humor, ocular tolerability); format: in vivo, Dutch Belted rabbits
# Experimental: Example 2: Topical Ocular Study in Rabbit. An IACUC-approved study evaluated diNACA or NACA topical ocular dosing in rabbit. Ophthalmic formulations were developed containing either 1% diNACA or 1% NACA that were used for repeated topical ocular instillation to Dutch Belted rabbits. Animals were dosed four times a day at approximately 8:00 AM, 11 AM, 2 PM, and 4:00 PM on days 1-6, and once on Day 7 at approximately 8:00 AM, via bilateral topical administration. Ocular tolerability was assessed at baseline and prior to the first daily dose by means of scoring chemosis, discharge, and hyperemia (Draize scoring). Ocular tissue was harvested at necropsy (day 7). A qualified analytical LC-MS method was developed and used to quantitate NACA levels in aqueous humor (AH).
# [14] = Oral dose study in rat (plasma levels); format: in vivo, male Sprague-Dawley rats; conditions: oral gavage diNACA 200 milligrams per kilogram (FIG. 5)
# Experimental: DiNACA as a Prodrug to NACA and NAC. Example 1: Oral Dose Study in Rat. An IACUC (Institutional Animal Care and Use Committee)-approved study evaluated diNACA dosed via oral gavage in male Sprague-Dawley rats. diNACA was weighed into individual tubes. The tubes were capped and stored at room temperature overnight. Rats were weighed. An appropriate amount of phosphate buffered saline pH 7.0 was added to each tube to achieve the desired diNACA concentration as a suspension. Blood specimens were collected from the tail vein at specified time points and processed to produce plasma. Plasma specimens were analyzed using a validated liquid chromatographic mass spectrometric procedure (King B; Vance J; Wall G M; Shoup R. Quantitation of free and total N-acetylcysteine amide and its metabolite N-acetylcysteine in human plasma using derivatization and electrospray LC-MS/MS. J Chrom B 2019; 1109:25-36.).
# [15] = Intravitreal dose study in rabbit (diNACA implant); format: in vivo, Female New Zealand White rabbits
# Experimental: Example 3: Intravitreal Dose Study in Rabbit. An IACUC-approved study evaluated intravitreally (IVT) dosed diNACA in rabbit. A standard sterile intravitreal implant containing diNACA was prepared. Female New Zealand White rabbits were administered IVT with a di-NACA implant at a dose of 0.8 mg/eye. One group of animals received IVT placebo implants without any test article. Clinical ophthalmic examinations were performed at baseline and on Days 8 and 23 post-dose. General health observations were performed daily. Body weights were recorded at baseline and prior to termination. Animals were euthanized on Day 8, 15, or 23, and tissue was collected and submitted for bioanalysis. […] Observations of conjunctival bulging, discharge, and minimal hemorrhaging were determined to be related to the injection procedure and resolved in most eyes on the day after dosing.
# [16] = vitreous humor (FIG. 6, FIG. 7)
# Chain of tyrosinase (P14679 19-529, species assumed): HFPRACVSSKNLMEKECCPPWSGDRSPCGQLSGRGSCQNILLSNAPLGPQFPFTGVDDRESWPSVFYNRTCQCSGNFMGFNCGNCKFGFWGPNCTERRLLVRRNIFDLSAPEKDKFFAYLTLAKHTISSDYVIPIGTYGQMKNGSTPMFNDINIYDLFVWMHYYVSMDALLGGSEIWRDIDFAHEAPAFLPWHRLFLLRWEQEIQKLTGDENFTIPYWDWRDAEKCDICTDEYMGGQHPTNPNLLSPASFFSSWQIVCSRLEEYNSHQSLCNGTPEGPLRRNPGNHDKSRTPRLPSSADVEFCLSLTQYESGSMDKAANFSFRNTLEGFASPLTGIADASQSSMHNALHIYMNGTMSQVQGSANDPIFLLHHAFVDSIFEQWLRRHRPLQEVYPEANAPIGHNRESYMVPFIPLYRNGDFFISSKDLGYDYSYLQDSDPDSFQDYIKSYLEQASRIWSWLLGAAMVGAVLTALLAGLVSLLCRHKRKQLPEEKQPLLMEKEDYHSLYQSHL
smiles,measurement,setting,value
CC(=O)N[C@@H](CS)C(N)=O,dopaminergic neuronal loss,[1],reduced dopaminergic neuronal loss
same,improvement of visual parameters,mouse model of RP,to a greater extent than NAC
same,amphetamine-induced rotational behaviour,[2],suppressed amphetamine-induced rotational behaviour
same,inhibition of tyrosinase activity,tyrosinase,significant inhibition of tyrosinase activity was observed in a dose responsive manner
same,protection against oxidative stress-induced cellular injury and death,[3],protected against oxidative stress-induced cellular injury and death
same,"BuOOH-induced intracellular oxidation, thiol depletion and hemoglobin oxidation in RBCs",RBCs,superior to NAC
same,inhibition of oxidative formation of cataract (opacity),isolated rat lens,inhibit oxidative formation of cataract (opacity)
same,cocaine-seeking behavior,[4],blocked cocaine-seeking behavior
same,melanin production,human melanocytes,inhibited melanin production
same,reduction in striatal dopamine levels,[5],attenuated the reduction in striatal dopamine levels
same,parameters of oxidative stress,β-thalassemic mice,significantly reduced the parameters of oxidative stress
same,"rescue from oxidative stress (GSH, MDA)",CD-1 mice,significantly rescued the animals from oxidative stress
same,reduction of oxidative stress markers in thalassemic cells relative to NAC,[6]; both in vitro and in vivo,superior to NAC
same,reactive oxygen species (ROS) of blood cells,[6]; in vitro treatment,reduced their reactive oxygen species (ROS)
same,"reduced GSH content of RBC, platelets and PMN leukocytes",[6]; in vitro treatment,elevated the reduced GSH content
same,inhibition of H2O2-induced cataract,isolated porcine lenses,dose-dependently inhibit H2O2-induced cataract
same,efficacy against H2O2-induced cataract relative to NAC,isolated porcine lenses,greater efficacy than NAC
same,inhibition of buthionine sulfoximine-induced cataracts,[7],inhibit
same,inhibition of sodium selenite-induced cataracts,[8],inhibit
same,glutathione and NAC in skin,[9],increased glutathione and NAC
"N[C@@H](CCC(=O)N[C@@H](CS)C(=O)NCC(=O)O)C(=O)O [GSH, c-L-glutamyl-L-cysteinyl-glycine]",pKi,[10],2.64
"C[N+](C)(C)CCOC(=O)CCCC[C@@H]1CCSS1 [LACE, lipoic acid choline ester]",lens softening and deformability,rabbit eyes,lens softening and an increase in lens deformability
same,lens softening and deformability,human cadaver lenses,lens softening and an increase in lens deformability
same,near visual acuity (DCNVA) improvement compared to placebo,patients with presbyopia,statistically significant
"CC(=O)NC(CS)C(=O)O (stereo not drawn) [NAC, 2-acetamido-3-sulfanylpropanoic acid]",plasma half-life,[11],2.5 h
same,time after administration at which no NAC is detectable,[11],10 to 12 h
same,improvement of visual acuity,"RP patients; RP patients (n=30), p<0.05",2-5 letters
same,aqueous humor concentrations of NAC,RP patients; RP patients,increased aqueous humor concentrations of NAC
same,corneal endothelial survival,mouse model,increased corneal endothelial survival
same,corneal endothelial survival,[12],increased corneal endothelial survival
same,reduction of relapse-drinking blood alcohol levels,alcohol-preferring rats,60%
same,inhibition of H2O2-induced cataract,isolated porcine lenses,dose-dependently inhibit H2O2-induced cataract
CC(=O)Oc1ccccc1C(=O)O [aspirin],reduction of relapse-drinking blood alcohol levels,alcohol-preferring rats,60%
"CC(=O)NC(CSSCC(NC(C)=O)C(N)=O)C(N)=O [diNACA, (2R,2R′)-3,3′-disulfanediyl bis(2-acetamidopropanamide)]",inhibition of tyrosinase activity,tyrosinase,significant inhibition of tyrosinase activity was observed in a dose responsive manner
same,inhibition of oxidative formation of cataract (opacity),isolated rat lens,inhibit oxidative formation of cataract (opacity)
same,penetration into the eye (aqueous humor),[13]; topical ocular dosing,penetrates the eye
same,prodrug delivery of NACA to aqueous humor,[13]; topical ocular dosing of 1% diNACA,served as a prodrug to deliver NACA to the AH
same,melanin production,human melanocytes,inhibited melanin production
same,bioavailability after oral administration,[14],bioavailable
same,levels in rat plasma after oral diNACA,[14],"significant levels of diNACA, NACA and NAC"
same,inhibition of H2O2-induced cataract,isolated porcine lenses,dose-dependently inhibit H2O2-induced cataract
same,efficacy against H2O2-induced cataract relative to NAC,isolated porcine lenses,greater efficacy than NAC
same,"effects on general, non-ocular health or on body weights",[15]; IVT implant 0.8 mg/eye,No serious adverse effects
same,ocular findings on the day of dosing,[15]; IVT implant 0.8 mg/eye,minimal ocular findings
same,tolerability of IVT delivery,"[15]; IVT implant 0.8 mg/eye, up to Day 23",generally well tolerated
same,elution into vitreous humor from IVT implant,[15]; [16],eluted into the VH
same,metabolites in vitreous humor after diNACA IVT implant,[15]; [16],presence of NACA and significant concentrations of NAC in the VH
same,glutathione and NAC in skin,[9],increased glutathione and NAC
